Laboratory results taken from patent publication US10758639B2, “Methods for the treatment of peri-implantitis” (POLYPID LTD., priority 2014, dated 2020).
Several values for one entry are separate records, joined by “and”; a condition that tells them apart may be missing. Equal entries are not always repeated.

Tested on: Staphylococcus aureus biofilm (ATCC 29213)
Assay: MBEC P&G assay: eradication of an established (preformed) biofilm
Assay type: cell-based
Conditions: for Log Reduction (Log R): vs. GC (growth control)
Method: The effectiveness of tri-calcium phosphate granules coated with a matrix composition according to embodiments of the invention in eradicating established biofilm was measured using the MBEC™ (Minimum Biofilm Eradication Concentration) Physiology and Genetics Assay.
MBEC™ Test Method Overview: MBEC™ test method specifies the operational parameters required to grow and treat different bacterial biofilms in a high throughput screening assay. The assay device consists of a plastic lid with ninety-six (96) pegs and a corresponding receiver plate with ninety-six (96) individual wells that have a maximum 200 μL working volume. Biofilm is established on the pegs in a batch culture based model (i.e., no flow of nutrients into or out of an individual well) with gentle mixing. The established biofilm is transferred to a new receiver plate for disinfectant efficacy testing.
Test Organisms: Staphylococcus aureus (an osteomyelitis-related strains); source: ATCC 29213; Dilution/Challenge Media: 1,000×TSB+10% human serum 24 hrs; Growth Media/agar: Tryptic Soy Broth/Tryptic Soy agar for 24 hrs Aerobic cond.
TEST METHOD overview: The experimental process for high-throughput antimicrobial susceptibility testing using the hydroxyapatite coated MBEC™ P&G assay. This standard protocol was broken into a series of small steps, each of which is detailed in the sections below.
1. Culture/Inoculum Preparation:
Using a cryogenic stock (at −70° C.), a first sub-culture of Staphylococcus aureus was streaked out on OSA (organism specific agar). The plates were incubated at appropriate growth conditions for 20±2.0 hours and further stored at 4° C.
A second sub-culture taken from the first sub-culture was streaked out on OSA. The plates were incubated at appropriate growth conditions for 20±2.0 hours. An isolated colony from the second sub-culture was aseptically removed from the OSA plate and inoculated into 50 mL of sterile bacterial liquid growth broth, followed by incubation appropriate growth conditions for 20±2.0 hours (at 150 rpm).
The inoculum was adjusted to an approximate cell density of 10^6 CFU/mL by diluting in OSB according to table 1.
Samples (100 μL) of the diluted organism were used for an inoculum check by serially diluting and spot plating on OSA in triplicate.
Preparation of the Challenge Plate:
150 μL of the remaining diluted organism were placed in each of the corresponding wells of an MBEC™ P&G device except the sterility controls (Table 5). The device was placed on an orbital shaker (110 RPM) in a humidified incubator at 37±1° C.
Antimicrobial Challenge for Preformed Biofilm:
The biofilm formed on the lid of the MBEC device was rinsed by dipping the lid into saline (˜30 seconds) to remove planktonic cells. The lid was then put on top of the challenge plate and incubated on a rotary shaker at 110 rpm at 35±2° C. for 24±2 hours.
After incubation (specified above), planktonic cells were rinsed off the biofilm by dipping the lid into saline (˜20-30 seconds). The lid was then transferred to a neutralizer/recovery plate and put in a sonicator (˜30 minutes) to dislodge surviving biofilm.
Following sonication, 100 μL from each well of the MBEC™ plate, were put into the first 12 empty wells of the first row of a 96 well-micro titer plate and were further diluted by 10 fold down each of the 8 rows (10^0-10^7 dilution). 5 μL from each well were then used for spotting prepared OSA plates. The agar plates were incubated at 37±1° C. and counted after approximately 24-48 hours of incubation. The arithmetic mean of the number of colonies counted on the plates was calculated.
100 μL of the sterile neutralizer was added to each well of the recovery plate to top up the volume back to 200 μL. The refilled plate is incubated at 35±2° C. for 24±2 hours, after which the plates were analyzed using a plate reader.
The log density for one peg was calculated as follows:
LOG10 (CFU/peg)=LOG10 [(XB) (D)] where: X=mean CFU; B=volume plated (0.02 mL) and D=dilution. […]

## Gentamicin [D]
0.5 μg
  Average Log10 CFU/peg recoveries: 3.48 Log10 CFU/peg
  Log10 CFU/peg recoveries, replicates 1-3: 3.90 Log10 CFU/peg and 2.90 Log10 CFU/peg and 3.64 Log10 CFU/peg
  Log Reduction (Log R): 1.11 LOG10
1.0 μg
  Average Log10 CFU/peg recoveries: 3.21 Log10 CFU/peg
  Log10 CFU/peg recoveries, replicates 1-3: 4.72 Log10 CFU/peg and 2.60 Log10 CFU/peg and 2.30 Log10 CFU/peg
  Log Reduction (Log R): 1.38 LOG10
2.0 μg
  Average Log10 CFU/peg recoveries: 1.69 Log10 CFU/peg
  Log10 CFU/peg recoveries, replicates 1-3: 2.30 Log10 CFU/peg and 0.00 Log10 CFU/peg and 2.78 Log10 CFU/peg
  Log Reduction (Log R): 2.90 LOG10
4.0 μg
  Average Log10 CFU/peg recoveries: 1.31 Log10 CFU/peg
  Log10 CFU/peg recoveries, replicates 1-3: 1.61 Log10 CFU/peg and 2.30 Log10 CFU/peg and 0.00 Log10 CFU/peg
  Log Reduction (Log R): 3.29 LOG10
8.0 μg
  Average Log10 CFU/peg recoveries: 0.00 Log10 CFU/peg
  Log10 CFU/peg recoveries, replicates 1-3: 0.00 Log10 CFU/peg
  Log Reduction (Log R): 4.59 LOG10
16 μg
  Average Log10 CFU/peg recoveries: 0.00 Log10 CFU/peg
  Log10 CFU/peg recoveries, replicates 1-3: 0.00 Log10 CFU/peg
  Log Reduction (Log R): 4.59 LOG10
32 μg
  Average Log10 CFU/peg recoveries: 0.00 Log10 CFU/peg
  Log10 CFU/peg recoveries, replicates 1-3: 0.00 Log10 CFU/peg
  Log Reduction (Log R): 4.59 LOG10
